system: HCV pseudoparticles (genotype 1a HCV E1 and E2 envelope, H77C isolate); assay: microbe, parasite or virus in culture; type: cell-based; settings: Hepatitis C virus, Huh-7, 48 h, HCV pseudoparticle infection of Huh7 cells, luciferase 2 days after infection; average of duplicates

Structure (SMILES)	EC50
COC(=O)[C@H](CCNC(=O)C(=O)NCC(C)c1ccccc1)NC(=O)c1ccc(Nc2nc(NC3(c4ccc(Cl)cc4)CC3)nc(OCC(F)(F)F)n2)cc1 (stereo partly shown) [Compound 1307]	0.38 nM
CCC1CCC(NC(=O)C(=O)NC[C@H](NC(=O)c2ccc(Nc3nc(NC4(c5ccc(Cl)cc5)CC4)nc(OCC(F)(F)F)n3)cc2)C(=O)OC)CC1 (stereo partly shown) [Compound 1065]	0.59 nM

same assay, conditions: Hepatitis C virus, Huh-7, 48 h, HCV pseudoparticles (genotype 1a, H77C) in Huh7 cells; average of duplicate; luciferase 2 days after infection

Structure (SMILES)	EC50
COC(=O)[C@H](CCNC(=O)C(=O)Nc1ccc(C)cc1)NC(=O)c1ccc(Nc2nc(NC3(c4ccc(Cl)cc4)CC3)nc(OCC(F)(F)F)n2)cc1 [Compound 3114]	0.084 nM
CC(C)(CNC(=O)C(=O)Nc1ccc(CCCC(=O)O)cc1)CNC(=O)c1ccc(Nc2nc(NC3(c4ccc(Cl)cc4)CC3)nc(OCC(F)(F)F)n2)cc1 [Compound 3361]	0.16 nM
C#Cc1ccc(NC(=O)C(=O)NC[C@H](NC(=O)c2ccc(Nc3nc(NC4(c5ccc(Cl)cc5)CC4)nc(OCC(F)(F)F)n3)cc2)C(=O)OC)cc1 [Compound 3100]	0.27 nM

same assay, conditions: Hepatitis C virus, Huh-7, 48 h, HCV pseudoparticles, Huh7 cells, luciferase 2 days after infection; average of duplicates

Structure (SMILES)	EC50
COC(=O)[C@H](CNC(=O)C(=O)Nc1cccc(-c2noc(C)n2)c1)NC(=O)c1ccc(Nc2nc(NC3(c4ccc(Cl)cc4)CC3)nc(OCC(F)(F)F)n2)cc1 [Compound 3730]	0.6 nM

same assay, conditions: Hepatitis C virus, Huh-7, 48 h, read-out: Activity (EC50 class), HCV pseudoparticle infection of Huh7 cells, luciferase 2 days after infection; EC50 expressed as class A/B

Structure (SMILES)	EC50
COC(=O)[C@H](CNC(=O)C(=O)NCc1ccccc1OC)NC(=O)c1ccc(Nc2nc(NC3(c4ccc(Cl)cc4)CC3)nc(OCC(F)(F)F)n2)cc1 [Compound 1150]	0.01 to 10 nM
Cc1nc(-c2ccc(NC(=O)C(=O)NCC(C)(C)CNC(=O)c3ccc(Nc4nc(NC5(c6ccc(Cl)cc6)CC5)nc(OCC(F)(F)F)n4)cc3)cc2)no1 [Compound 1563]	0.01 to 10 nM
COC(=O)[C@H](CNC(=O)C(=O)N[C@H]1C[C@@H]2C[C@@H]([C@@H]1C)C2(C)C)NC(=O)c1ccc(Nc2nc(NC3(c4ccc(Cl)cc4)CC3)nc(OCC(F)(F)F)n2)cc1 [Compound 1066]	0.01 to 10 nM
COC(=O)[C@H](CNC(=O)C(=O)NCCc1ccccc1F)NC(=O)c1ccc(Nc2nc(NC3(c4ccc(Cl)cc4)CC3)nc(OCC(F)(F)F)n2)cc1 [Compound 1290]	0.01 to 10 nM
COC(=O)[C@H](CNC(=O)C(=O)NCCc1c[nH]cn1)NC(=O)c1ccc(Nc2nc(NC3(c4ccc(Cl)cc4)CC3)nc(OCC(F)(F)F)n2)cc1 [Compound 1295]	10 to 1000 nM
COC(=O)[C@H](CNC(=O)C(=O)NCc1cccc(F)c1)NC(=O)c1ccc(Nc2nc(NC3(c4ccc(Cl)cc4)CC3)nc(OCC(F)(F)F)n2)cc1 [Compound 1131]	0.01 to 10 nM
COC(=O)[C@H](CCNC(=O)C(=O)Nc1nccn1C)NC(=O)c1ccc(Nc2nc(NC3(c4ccc(Cl)cc4)CC3)nc(OCC(F)(F)F)n2)cc1 [Compound 1222]	0.01 to 10 nM
COC(=O)[C@H](CNC(=O)C(=O)NC1CCCCC1c1ccccc1)NC(=O)c1ccc(Nc2nc(NC3(c4ccc(Cl)cc4)CC3)nc(OCC(F)(F)F)n2)cc1 (stereo partly shown) [Compound 1305]	0.01 to 10 nM
COC(=O)[C@H](CCNC(=O)C(=O)NCC(C)c1ccccc1)NC(=O)c1ccc(Nc2nc(NC3(c4ccc(Cl)cc4)CC3)nc(OCC(F)(F)F)n2)cc1 (stereo partly shown) [Compound 1307]	0.01 to 10 nM
CCC1CCC(NC(=O)C(=O)NC[C@H](NC(=O)c2ccc(Nc3nc(NC4(c5ccc(Cl)cc5)CC4)nc(OCC(F)(F)F)n3)cc2)C(=O)OC)CC1 (stereo partly shown) [Compound 1065]	0.01 to 10 nM
COC(=O)[C@H](CNC(=O)C(=O)N[C@@H]1C[C@@H]2CC[C@H]1C2)NC(=O)c1ccc(Nc2nc(NC3(c4ccc(Cl)cc4)CC3)nc(OCC(F)(F)F)n2)cc1 [Compound 1050]	0.01 to 10 nM
O=C(NCC[C@H](NC(=O)c1ccc(Nc2nc(NC3(c4ccc(Cl)cc4)CC3)nc(OCC(F)(F)F)n2)cc1)C(=O)O)C(=O)Nc1cccc(F)c1 [Compound 1269]	0.01 to 10 nM
COC(=O)[C@H](CCNC(=O)C(=O)N(C)C)NC(=O)c1ccc(Nc2nc(NC3(c4ccc(Cl)cc4)CC3)nc(OCC(F)(F)F)n2)cc1 [Compound 1011, (S)-methyl 2-(4-(4-(1-(4-chlorophenyl)cyclopropylamino)-6-(2,2,2-trifluoroethoxy)-1,3,5-triazin-2-ylamino)benzamido)-4-(2-(dimethylamino)-2-oxoacetamido)butanoate]	0.01 to 10 nM
O=C(NCC1CC1)C(=O)NCC1(CNC(=O)c2ccc(Nc3nc(NC4(c5ccc(Cl)cc5)CC4)nc(OCC(F)(F)F)n3)cc2)CC1 [Compound 1493]	0.01 to 10 nM
O=C(NCC[C@H](NC(=O)c1ccc(Nc2nc(NC3(c4ccc(Cl)cc4)CC3)nc(OCC(F)(F)F)n2)cc1)C(=O)O)C(=O)N[C@H]1C[C@H]1c1ccccc1 [Compound 1338]	0.01 to 10 nM
CC1(C)[C@H]2CCC(CNC(=O)C(=O)NC[C@H](NC(=O)c3ccc(Nc4nc(NC5(c6ccc(Cl)cc6)CC5)nc(OCC(F)(F)F)n4)cc3)C(=O)O)[C@@H]1C2 (stereo partly shown) [Compound 1473]	0.01 to 10 nM
O=C(NCC[C@H](NC(=O)c1ccc(Nc2nc(NC3(c4ccc(Cl)cc4)CC3)nc(OCC(F)(F)F)n2)cc1)C(=O)O)C(=O)Nc1ccc(F)c(F)c1F [Compound 1509]	0.01 to 10 nM
CC(C)(CNC(=O)C(=O)Nc1ccc(-c2cccc(C(=O)O)c2)cc1)CNC(=O)c1ccc(Nc2nc(NC3(c4ccc(Cl)cc4)CC3)nc(OCC(F)(F)F)n2)cc1 [Compound 1543]	0.01 to 10 nM
COC(=O)[C@H](CCNC(=O)C(=O)NCc1ccc(F)cc1F)NC(=O)c1ccc(Nc2nc(NC3(c4ccc(Cl)cc4)CC3)nc(OCC(F)(F)F)n2)cc1 [Compound 1161]	0.01 to 10 nM

same assay, conditions: Hepatitis C virus, Huh-7, 48 h, read-out: Activity (EC50 class), HCV pseudoparticles, Huh7 cells, luciferase 2 days after infection; average of duplicates

Structure (SMILES)	EC50
Cc1ccc(NC(=O)C(=O)NCC(C)(C)CNC(=O)c2ccc(Nc3nc(NC4(c5ccc(Cl)cc5)CC4)nc(OCc4ccc(Cl)cc4)n3)cc2)cc1 [Compound 3849]	0.01 to 10 nM
O=C(NC[C@H](NC(=O)c1ccc(Nc2nc(NC3(c4ccc(Cl)cc4)CC3)nc(OCC(F)(F)F)n2)cc1)C(=O)O)C(=O)Nc1cccc(CCc2ccccn2)c1 [Compound 3769]	0.01 to 10 nM
COC(=O)[C@H](CNC(=O)C(=O)Nc1cccc(-c2noc(C)n2)c1)NC(=O)c1ccc(Nc2nc(NC3(c4ccc(Cl)cc4)CC3)nc(OCC(F)(F)F)n2)cc1 [Compound 3730]	0.01 to 10 nM
C#Cc1cccc(NC(=O)C(=O)NC[C@H](NC(=O)c2ccc(Nc3nc(NC4(c5ccc(Cl)cc5)CC4)nc(OCC(F)(F)F)n3)cc2)C(=O)Cl)c1 [Compound 3746]	0.01 to 10 nM
O=C(NCC[C@H](NC(=O)c1ccc(Nc2nc(NC3(c4ccc(Cl)cc4)CC3)nc(OCC(F)(F)F)n2)cc1)C(=O)O)C(=O)Nc1cccc(-c2cnco2)c1 [Compound 3621]	0.01 to 10 nM
CC(=O)Nc1ccc(NC(=O)C(=O)NCC[C@H](NC(=O)c2ccc(Nc3nc(NC4(c5ccc(Cl)cc5)CC4)nc(OCC(F)(F)F)n3)cc2)C(=O)O)cn1 [Compound 3631]	0.01 to 10 nM
COc1cc2nc(NC(=O)C(=O)NCC(C)(C)CNC(=O)c3ccc(Nc4nc(NC5(c6ccc(Cl)cc6)CC5)nc(OCC(F)(F)F)n4)cc3)sc2cc1OC [Compound 3665]	0.01 to 10 nM
CCN(CC)CCOc1cccc(NC(=O)C(=O)NCC[C@H](NC(=O)c2ccc(Nc3nc(NC4(c5ccc(Cl)cc5)CC4)nc(OCC(F)(F)F)n3)cc2)C(=O)O)c1 [Compound 3658]	0.01 to 10 nM
O=C(NC[C@H](NC(=O)c1ccc(Nc2nc(NC3(c4ccc(Cl)cc4)CC3)nc(OCC(F)(F)F)n2)cc1)C(=O)O)C(=O)Nc1cccc(OC(F)F)c1 [Compound 3764]	0.01 to 10 nM
COc1cc2sc(NC(=O)C(=O)NCC(C)(C)CNC(=O)c3ccc(Nc4nc(NC5(c6ccc(Cl)cc6)CC5)nc(OCC(F)(F)F)n4)cc3)nc2cc1Cl [Compound 3802]	0.01 to 10 nM

same assay, conditions: Hepatitis C virus, Huh-7, read-out: Activity (EC50 class), HCV pseudoparticles (genotype 1a, H77C) in Huh7 cells; EC50 expressed as class A/B

Structure (SMILES)	EC50
Cc1ccc(NC(=O)C(=O)NC(C)(C)CNC(=O)c2ccc(Nc3nc(NC4(c5ccc(Cl)cc5)CC4)nc(OCC(F)(F)F)n3)cc2)cc1Cl [Compound 3441]	0.01 to 10 nM
Cc1cc2cccc(NC(=O)C(=O)NCC(C)(C)CNC(=O)c3ccc(Nc4nc(NC5(c6ccc(Cl)cc6)CC5)nc(OCC(F)(F)F)n4)cc3)c2o1 [Compound 3354]	0.01 to 10 nM
O=C(NC/C(=N/C(=O)c1ccc(Nc2nc(NC3(c4ccc(Cl)cc4)CC3)nc(OCC(F)(F)F)n2)cc1)C(=O)O)C(=O)Nc1ccc(NCc2ccccc2)cc1 [Compound 3158]	0.01 to 10 nM
CC(C)(CNC(=O)C(N)=O)CNC(=O)c1ccc(Nc2nc(NC3(c4ccc(Cl)cc4)CC3)nc(OCC(F)(F)F)n2)cc1O [Compound 3389]	0.01 to 10 nM
O=C(Nc1nccs1)C(=O)N1CCCC(CNC(=O)c2ccc(Nc3nc(NC4(c5ccc(Cl)cc5)CC4)nc(OCC(F)(F)F)n3)cc2)C1 (stereo not shown) [Compound 3487]	0.01 to 10 nM
Cc1nc(C(F)(F)F)ccc1NC(=O)C(=O)NCC(C)(C)CNC(=O)c1ccc(Nc2nc(NC3(c4ccc(Cl)cc4)CC3)nc(OCC(F)(F)F)n2)cc1 [Compound 3249]	0.01 to 10 nM
COC(=O)[C@H](CCNC(=O)C(=O)Nc1ccc(C)cc1)NC(=O)c1ccc(Nc2nc(NC3(c4ccc(Cl)cc4)CC3)nc(OCC(F)(F)F)n2)cc1 [Compound 3114]	0.01 to 10 nM
COC(=O)[C@H](CNC(=O)C(=O)Nc1ccc(Cn2cccn2)cc1)NC(=O)c1ccc(Nc2nc(NC3(c4ccc(Cl)cc4)CC3)nc(OCC(F)(F)F)n2)cc1 [Compound 3195]	0.01 to 10 nM
O=C(NC[C@H](NC(=O)c1ccc(Nc2nc(NC3(c4ccc(Cl)cc4)CC3)nc(OCC(F)(F)F)n2)cc1)C(=O)O)C(=O)Nc1ccc(Cn2cccc2)cc1 [Compound 3280]	0.01 to 10 nM
CC(C)(CNC(=O)C(=O)Nc1ccc(CCCC(=O)O)cc1)CNC(=O)c1ccc(Nc2nc(NC3(c4ccc(Cl)cc4)CC3)nc(OCC(F)(F)F)n2)cc1 [Compound 3361]	0.01 to 10 nM
Cc1nnnn1-c1cc(Nc2nc(NC3(c4ccc(Cl)cc4)CC3)nc(OCC(F)(F)F)n2)ccc1C(=O)NCC(C)(C)CNC(=O)C(=O)Nc1ccc(F)cc1 [Compound 3552]	0.01 to 10 nM
O=C(NCCNC(=O)c1ccc(Nc2nc(NC3(c4ccc(Cl)cc4)CC3)nc(OCC(F)(F)F)n2)cc1)C(=O)Nc1cccc(F)c1 [Compound 3369]	0.01 to 10 nM
CC(C)(CNC(=O)C(=O)Nc1ccc(C(F)(F)F)c(F)c1)CNC(=O)c1ccc(Nc2nc(NC3(c4ccc(Cl)cc4)CC3)nc(OCC(F)(F)F)n2)cc1 [Compound 3250]	0.01 to 10 nM
C#Cc1ccc(NC(=O)C(=O)NC[C@H](NC(=O)c2ccc(Nc3nc(NC4(c5ccc(Cl)cc5)CC4)nc(OCC(F)(F)F)n3)cc2)C(=O)OC)cc1 [Compound 3100]	0.01 to 10 nM
COC(=O)[C@H](CCNC(=O)C(=O)Nc1ccc(CCCl)cc1)NC(=O)c1ccc(Nc2nc(NC3(c4ccc(Cl)cc4)CC3)nc(OCC(F)(F)F)n2)cc1 [Compound 3115]	0.01 to 10 nM
CC(C)(CNC(=O)C(=O)Nc1ccc(C(=O)c2ccccc2)cc1)CNC(=O)c1ccc(Nc2nc(NC3(c4ccc(Cl)cc4)CC3)nc(OCC(F)(F)F)n2)cc1 [Compound 3142]	0.01 to 10 nM
COC(=O)[C@H](CNC(=O)C(=O)Nc1ccc(Cc2ccncc2)cc1)NC(=O)c1ccc(Nc2nc(NC3(c4ccc(Cl)cc4)CC3)nc(OCC(F)(F)F)n2)cc1 [Compound 3094]	0.01 to 10 nM
